Assays:
[1] = system: colonic mucus hydrogel; test: Ex vivo penetration or exclusion of probes and polymers in adherent colonic mucus hydrogel; set-up: species or system mice; conditions: washed explant, incubated 1-2 h at 4° C.
[2] = system: colonic mucus hydrogel; test: Ex vivo polymer-induced compression of washed colonic mucus hydrogel (1 μm microparticle method); set-up: species or system mice; conditions: 500 mM acetate
From the text: Each mouse was euthanized; the colon was removed and immediately flushed gently with ice-cold 1× PBS, and placed ˜1 cm long segments of the mid-colon in ice-cold PBS. […] The hydrogel thickness was detected through imaging of the washed tissue. […] This ensured that the microparticles deposited onto the mucus hydrogel surface. both the epithelium and the deposited microparticles were simultaneously imaged using confocal or two-photon reflectance microscopy. After measuring the initial washed mucus thickness, ˜0.2-2mL of the test polymer solution was gently deposited onto the exposed luminal surface and then collected the same 3D stacks at the same xy fields of view To measure the “percent compression”, or the overall percentage change in the thickness, of the colonic mucus after exposure to the polymer solution, the thickness was measured before and after exposure to the solution at the same five xy positions, using the distance between the epithelial surface and the deposited microparticles in the 3D stacks. To calculate the percentage compression, the percentage change in the thickness measured was calculated, as well as the measurement uncertainty (using the optical slice thickness as the experimental uncertainty in the measured thickness), at each of these five xy positions. The percentage compression was calculated as the mean of these five measured values. […]

Compound | penetration into or exclusion from adherent mucus hydrogel [1] | penetration into or exclusion from adherent mucus hydrogel ([1]; listed as Fluorescent PEG 200 kDa) | mucus compression [2]
Methoxyl polyethylene glycol-FITC [mPEG-FITC 200k] | Penetration of mucus | penetrate the hydrogel | –
CC(=O)O [acetate] | – | – | ≈ 10%
FITC-dextran [fluorescent dextran 2 MDa] | penetrate the hydrogel | – | –

Reference: patent US20170189444A1, “POLYMERIC COMPOSITIONS AND RELATED SYSTEMS AND METHODS FOR REGULATING BIOLOGICAL HYDROGELS” (CALIFORNIA INSTITUTE OF TECHNOLOGY, priority 2016, published 2017)
